Numbered stars: 1 amine (or outer) side, 2 acyl side, 3 side chain; on linkers, the order of the positions; unused ones are H or OH. Square brackets hold non-standard residues; d marks the D form. Side chains are listed from the residue outwards. Peptide text beside a SMILES is read from it. * marks the point of attachment. C20 diacid = O=C(O)CCCCCCCCCCCCCCCCCCC(=O)*; C18 diacid = O=C(O)CCCCCCCCCCCCCCCCC(=O)*; αMePhe(2-F) = C[C@](N)(Cc1ccccc1F)C(=O)O; γGlu = O=C(O)[C@H](CCC(=O)[*:2])N[*:1]; Orn = NCCC[C@H](N)C(=O)O; AEEA = NCCOCCOCC(=O)O; Aib = CC(C)(N)C(=O)O
How the values were obtained:
human GLP-1R = human GLP-1R (Homo sapiens, UniProt P43220); assay: [125I]-GLP-1 binding (SPA), human GLP-1 receptor; set-up: expressed in transfected cells; crude membranes; conditions: read-out: hGLP1R Ki, (nM) (SEM, n)
Outline: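 Ki values are geometric means with SEM over independent replicates on different days, derived from IC50s fitted by four-parameter nonlinear regression. The assay used crude cell membranes in HEPES buffer, pH 7.4, containing CaCl2, MgCl2, bacitracin and TWEEN-20.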

[1] = target: human GLP-1 receptor (GLP-1R) (Homo sapiens, UniProt P43220); assay: cAMP pharmacological functional assay in presence of casein, hGLP-1R; type: cell-based; conditions: HEK293 cells expressing hGLP-1R, 0.1% Casein, geometric mean; read-out: hGLP1R cAMP Rel EC50 nM (SEM, n)
human GIP receptor = target: T1, human GIP receptor (Homo sapiens, UniProt P48546); assay: [125I]-GIP binding (SPA), human GIP receptor; conditions: read-out: hGIPR Ki, nM (SEM, n)
T1 construct: expressed in transfected cells; crude membranes
T1 sequence (P48546 22-466): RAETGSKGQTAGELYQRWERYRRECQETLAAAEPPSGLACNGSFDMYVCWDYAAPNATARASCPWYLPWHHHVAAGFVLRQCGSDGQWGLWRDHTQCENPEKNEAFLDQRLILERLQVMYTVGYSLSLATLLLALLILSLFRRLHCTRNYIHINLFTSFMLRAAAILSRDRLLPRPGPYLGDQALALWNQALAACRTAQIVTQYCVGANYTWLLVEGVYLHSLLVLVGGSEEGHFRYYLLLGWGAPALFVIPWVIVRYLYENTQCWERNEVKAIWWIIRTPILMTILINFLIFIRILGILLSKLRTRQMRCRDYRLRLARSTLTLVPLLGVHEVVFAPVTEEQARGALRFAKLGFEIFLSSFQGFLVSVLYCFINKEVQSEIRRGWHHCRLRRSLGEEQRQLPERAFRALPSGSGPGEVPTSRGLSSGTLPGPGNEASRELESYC

[2] = target: T2, gastric inhibitory peptide receptor (GIPR) (Homo sapiens, UniProt P48546); assay: cAMP pharmacological functional assay in presence of casein, hGIPR; type: cell-based; conditions: HEK293 cells expressing hGIPR, 0.1% Casein, geometric mean; read-out: hGIPR cAMP Rel EC50 nM (SEM, n)
T2 sequence (P48546 22-466): T1 sequence (P48546 22-466)

human Gcg receptor = target: T3, human Gcg receptor (Homo sapiens, UniProt P47871); assay: [125I]-Glucagon binding (SPA), human Gcg receptor; conditions: read-out: hGLcgR Ki, nM (SEM, n)
T3 construct: expressed in transfected cells; crude membranes
Outline: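 Scintillation counts are taken after membranes and WGA beads incubate and settle for 12 hours at room temperature. Buffer is 25 mM HEPES, pH 7.4, with CaCl2, MgCl2, bacitracin and Tween-20. Ki values, from four-parameter IC50 fits, are geometric means over independent days.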

Chain of human GLP-1R (P43220 24-463): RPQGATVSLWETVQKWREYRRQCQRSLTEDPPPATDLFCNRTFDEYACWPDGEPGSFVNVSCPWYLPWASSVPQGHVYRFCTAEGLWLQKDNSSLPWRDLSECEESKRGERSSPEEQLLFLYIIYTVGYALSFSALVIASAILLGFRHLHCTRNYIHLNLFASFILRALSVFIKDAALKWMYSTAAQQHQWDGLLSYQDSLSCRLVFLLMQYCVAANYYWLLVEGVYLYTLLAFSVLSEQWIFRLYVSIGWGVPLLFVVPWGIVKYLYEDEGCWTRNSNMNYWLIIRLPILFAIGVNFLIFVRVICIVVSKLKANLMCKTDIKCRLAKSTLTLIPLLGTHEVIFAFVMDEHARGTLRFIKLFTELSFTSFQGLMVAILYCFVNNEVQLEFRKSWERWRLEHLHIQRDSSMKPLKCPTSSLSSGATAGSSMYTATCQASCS
Chain of human GLP-1 receptor (GLP-1R) (P43220 24-463): as above
T3 sequence (P47871 26-477): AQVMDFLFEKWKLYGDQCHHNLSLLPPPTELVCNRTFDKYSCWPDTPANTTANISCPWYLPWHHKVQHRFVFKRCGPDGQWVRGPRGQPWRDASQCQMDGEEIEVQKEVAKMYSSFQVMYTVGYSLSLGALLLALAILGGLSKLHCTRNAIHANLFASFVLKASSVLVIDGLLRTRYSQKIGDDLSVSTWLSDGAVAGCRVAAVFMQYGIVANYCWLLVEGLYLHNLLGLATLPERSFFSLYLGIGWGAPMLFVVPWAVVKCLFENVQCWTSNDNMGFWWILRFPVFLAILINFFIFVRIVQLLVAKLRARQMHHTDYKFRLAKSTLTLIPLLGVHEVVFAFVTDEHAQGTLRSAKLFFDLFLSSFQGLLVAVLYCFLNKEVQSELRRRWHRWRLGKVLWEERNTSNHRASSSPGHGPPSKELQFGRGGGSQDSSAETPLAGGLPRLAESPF

Row | Compound | Ki (human GLP-1R) | EC50 [1] | Ki (human GIP receptor) | EC50 [2] | Ki (human Gcg receptor)
1 | CC[C@H](C)[C@H](NC(=O)[C@H](Cc1ccccc1)NC(=O)[C@H](C)NC(=O)C(C)(C)NC(=O)[C@H](CCC(N)=O)NC(=O)[C@H](C)NC(=O)[C@H](CCCCNC(=O)COCCOCCNC(=O)COCCOCCNC(=O)CC[C@H](NC(=O)CCCCCCCCCCCCCCCCCCC(=O)O)C(=O)O)NC(=O)[C@H](CCCCN)NC(=O)[C@H](CC(=O)O)NC(=O)[C@H](CC(C)C)NC(=O)[C@H](CC(C)C)NC(=O)[C@@H](NC(=O)[C@H](CO)NC(=O)[C@H](Cc1ccc(O)cc1)NC(=O)[C@H](CC(=O)O)NC(=O)[C@H](CO)NC(=O)[C@@H](NC(=O)[C@H](Cc1ccccc1)NC(=O)[C@@H](NC(=O)CNC(=O)[C@H](CCC(=O)O)NC(=O)C(C)(C)NC(=O)[C@@H](N)Cc1ccc(O)cc1)[C@@H](C)O)[C@@H](C)O)[C@@H](C)CC)C(=O)N[C@@H](CCC(=O)O)C(=O)N[C@@H](Cc1ccc(O)cc1)C(=O)N[C@@H](CC(C)C)C(=O)N[C@H](C(=O)N[C@H](CCC(=O)O)C(=O)NCC(=O)NCC(=O)N1CCC[C@H]1C(=O)N[C@@H](CO)C(=O)N[C@@H](CO)C(=O)NCC(=O)N[C@@H](C)C(=O)N1CCC[C@H]1C(=O)N1CCC[C@H]1C(=O)N1CCC[C@H]1C(=O)N[C@@H](CO)C(N)=O)[C@@H](C)CC [Example 83] | 7.1 nM | 0.387 nM | 0.142 nM | 0.182 nM | 320 nM
2 | CC[C@H](C)[C@H](NC(=O)[C@H](CCCCN)NC(=O)[C@H](CC(=O)O)NC(=O)[C@H](CC(C)C)NC(=O)[C@H](CC(C)C)NC(=O)[C@@H](NC(=O)[C@H](CO)NC(=O)[C@H](Cc1ccc(O)cc1)NC(=O)[C@H](CC(=O)O)NC(=O)[C@H](CO)NC(=O)[C@@H](NC(=O)[C@H](Cc1ccccc1)NC(=O)[C@@H](NC(=O)CNC(=O)[C@H](CCC(=O)O)NC(=O)C(C)(C)NC(=O)[C@@H](N)Cc1ccc(O)cc1)[C@@H](C)O)[C@@H](C)O)[C@@H](C)CC)C(=O)N[C@@H](C)C(=O)N[C@@H](CCC(N)=O)C(=O)NC(C)(C)C(=O)N[C@@H](C)C(=O)N[C@@H](Cc1ccccc1)C(=O)N[C@H](C(=O)N[C@@H](CCC(=O)O)C(=O)N[C@@H](Cc1ccc(O)cc1)C(=O)N[C@@H](CC(C)C)C(=O)N[C@H](C(=O)N[C@@H](CCC(=O)O)C(=O)N[C@@H](CCCCNC(=O)COCCOCCNC(=O)COCCOCCNC(=O)CC[C@H](NC(=O)CCCCCCCCCCCCCCCCCCC(=O)O)C(=O)O)C(=O)NCC(=O)N1CCC[C@H]1C(=O)N[C@@H](CO)C(=O)N[C@@H](CO)C(=O)NCC(=O)N[C@@H](C)C(=O)N1CCC[C@H]1C(=O)N1CCC[C@H]1C(=O)N1CCC[C@H]1C(=O)N[C@@H](CO)C(N)=O)[C@@H](C)CC)[C@@H](C)CC [Example 38] (H-Y[Aib]EGTFTSDYSILLDKIAQ[Aib]AFIEYLIEK([AEEA-AEEA-γGlu-C20 diacid])GPSSGAPPPS-NH2) | 31.3 nM | 2.82 nM | 0.104 nM | 0.147 nM | > 974 nM
3 | CC[C@H](C)[C@H](NC(=O)[C@H](CC(C)C)NC(=O)[C@H](Cc1ccc(O)cc1)NC(=O)[C@H](CCC(=O)O)NC(=O)[C@@H](NC(=O)[C@H](Cc1ccccc1)NC(=O)[C@H](CCC(=O)O)NC(=O)C(C)(C)NC(=O)[C@H](CCC(N)=O)NC(=O)[C@H](C)NC(=O)[C@H](CCCCNC(=O)COCCOCCNC(=O)COCCOCCNC(=O)CC[C@H](NC(=O)CCCCCCCCCCCCCCCCC(=O)O)C(=O)O)NC(=O)[C@H](CCCCN)NC(=O)[C@H](CC(=O)O)NC(=O)[C@H](CC(C)C)NC(=O)[C@H](CC(C)C)NC(=O)[C@@H](NC(=O)[C@H](CO)NC(=O)[C@H](Cc1ccc(O)cc1)NC(=O)[C@H](CC(=O)O)NC(=O)[C@H](CO)NC(=O)[C@@H](NC(=O)[C@H](Cc1ccccc1)NC(=O)[C@@H](NC(=O)CNC(=O)[C@H](CCC(=O)O)NC(=O)C(C)(C)NC(=O)[C@@H](N)Cc1ccc(O)cc1)[C@@H](C)O)[C@@H](C)O)[C@@H](C)CC)[C@@H](C)CC)C(=O)N[C@@H](C)C(=O)NCC(=O)NCC(N)=O [Example 297] (H-Y[Aib]EGTFTSDYSILLDKK([AEEA-AEEA-γGlu-C18 diacid])AQ[Aib]EFIEYLIAGG-NH2) | 2.98 nM | 0.111 nM | 0.0958 nM | 0.0451 nM | > 1240 nM
4 | CC[C@H](C)[C@H](NC(=O)[C@H](CC(C)C)NC(=O)[C@H](Cc1ccc(O)cc1)NC(=O)[C@@H](CCC(=O)O)NC(=O)[C@@H](NC(=O)[C@H](Cc1ccccc1)NC(=O)[C@H](CCC(=O)O)NC(=O)C(C)(C)NC(=O)[C@H](CCC(N)=O)NC(=O)[C@H](C)NC(=O)[C@H](CCCCNC(=O)COCCOCCNC(=O)COCCOCCNC(=O)CC[C@H](NC(=O)CCCCCCCCCCCCCCCCCCC(=O)O)C(=O)O)NC(=O)[C@H](CCC(=O)O)NC(=O)[C@H](CC(=O)O)NC(=O)[C@H](CC(C)C)NC(=O)C(C)(C)NC(=O)[C@@H](NC(=O)[C@H](CO)NC(=O)[C@H](Cc1ccc(O)cc1)NC(=O)[C@H](CC(=O)O)NC(=O)[C@H](CO)NC(=O)[C@@H](NC(=O)[C@](C)(Cc1ccccc1F)NC(=O)[C@@H](NC(=O)CNC(=O)[C@H](CCC(=O)O)NC(=O)C(C)(C)NC(=O)[C@@H](N)Cc1ccc(O)cc1)[C@@H](C)O)[C@@H](C)O)[C@@H](C)CC)[C@@H](C)CC)C(=O)N[C@@H](CCC(=O)O)C(=O)NCC(=O)NCC(=O)N1CCC[C@H]1C(=O)N[C@@H](CO)C(=O)N[C@@H](CO)C(=O)NCC(=O)N[C@@H](C)C(=O)N1CCC[C@H]1C(=O)N1CCC[C@H]1C(=O)N1CCC[C@H]1C(=O)N[C@@H](CO)C(N)=O [Example 224] (H-Y[Aib]EGT[αMePhe(2-F)]TSDYSI[Aib]LDEK([AEEA-AEEA-γGlu-C20 diacid])AQ[Aib]EFI[dE]YLIEGGPSSGAPPPS-NH2) | 6.86 nM | 0.0349 nM | 0.0482 nM | 0.0545 nM | 627 nM
5 | CC[C@H](C)[C@H](NC(=O)[C@H](CC(C)C)NC(=O)[C@H](Cc1ccc(O)cc1)NC(=O)[C@@H](CCC(=O)O)NC(=O)[C@@H](NC(=O)[C@H](Cc1ccccc1)NC(=O)[C@H](CCC(=O)O)NC(=O)C(C)(C)NC(=O)[C@H](CCC(N)=O)NC(=O)[C@H](C)NC(=O)[C@H](CCCCNC(=O)COCCOCCNC(=O)COCCOCCNC(=O)CC[C@H](NC(=O)CCCCCCCCCCCCCCCCCCC(=O)O)C(=O)O)NC(=O)[C@H](CCCN)NC(=O)[C@H](CC(=O)O)NC(=O)[C@H](CC(C)C)NC(=O)C(C)(C)NC(=O)[C@@H](NC(=O)[C@H](CO)NC(=O)[C@H](Cc1ccc(O)cc1)NC(=O)[C@H](CC(=O)O)NC(=O)[C@H](CO)NC(=O)[C@@H](NC(=O)[C@](C)(Cc1ccccc1F)NC(=O)[C@@H](NC(=O)CNC(=O)[C@H](CCC(=O)O)NC(=O)C(C)(C)NC(=O)[C@@H](N)Cc1ccc(O)cc1)[C@@H](C)O)[C@@H](C)O)[C@@H](C)CC)[C@@H](C)CC)C(=O)N[C@@H](CCC(=O)O)C(=O)NCC(=O)NCC(=O)N1CCC[C@H]1C(=O)N[C@@H](CO)C(=O)N[C@@H](CO)C(=O)NCC(=O)N[C@@H](C)C(=O)N1CCC[C@H]1C(=O)N1CCC[C@H]1C(=O)N1CCC[C@H]1C(=O)N[C@@H](CO)C(N)=O [Example 250] (H-Y[Aib]EGT[αMePhe(2-F)]TSDYSI[Aib]LD[Orn]K([AEEA-AEEA-γGlu-C20 diacid])AQ[Aib]EFI[dE]YLIEGGPSSGAPPPS-NH2) | 1.72 nM | 0.0306 nM | 0.0171 nM | 0.0376 nM | 198 nM
6 | CC[C@H](C)[C@H](NC(=O)[C@H](CC(C)C)NC(=O)[C@H](Cc1ccc(O)cc1)NC(=O)[C@H](CCC(=O)O)NC(=O)[C@@H](NC(=O)[C@H](Cc1ccccc1)NC(=O)[C@H](CCC(=O)O)NC(=O)C(C)(C)NC(=O)[C@H](CCC(N)=O)NC(=O)[C@H](C)NC(=O)[C@H](CCCCNC(=O)COCCOCCNC(=O)COCCOCCNC(=O)CC[C@H](NC(=O)CCCCCCCCCCCCCCCCC(=O)O)C(=O)O)NC(=O)[C@H](CCCCN)NC(=O)[C@H](CC(=O)O)NC(=O)[C@H](CC(C)C)NC(=O)[C@H](CC(C)C)NC(=O)[C@@H](NC(=O)[C@H](CO)NC(=O)[C@H](Cc1ccc(O)cc1)NC(=O)[C@H](CC(=O)O)NC(=O)[C@H](CO)NC(=O)[C@@H](NC(=O)[C@H](Cc1ccccc1)NC(=O)[C@@H](NC(=O)CNC(=O)[C@H](CCC(=O)O)NC(=O)C(C)(C)NC(=O)[C@@H](N)Cc1ccc(O)cc1)[C@@H](C)O)[C@@H](C)O)[C@@H](C)CC)[C@@H](C)CC)C(=O)N[C@@H](CCC(=O)O)C(=O)NCC(=O)NCC(N)=O [Example 271] (H-Y[Aib]EGTFTSDYSILLDKK([AEEA-AEEA-γGlu-C18 diacid])AQ[Aib]EFIEYLIEGG-NH2) | 5.09 nM | 0.0352 nM | 0.107 nM | 0.334 nM | > 1150 nM
